From article PMC12752568, “Aloe‐Emodin Targeting FOXC2 Disrupts NETs Formation and EMT‐Driven Postoperative Peritoneal Adhesion Through TGF‐β1‐Smad2/3 Pathway” (Advanced Science, 2025) come the findings set out here.

Common to all, as to assay type: binding
Test [1] addresses T1, Forkhead box protein C2 (FOXC2) (Homo sapiens, UniProt Q99958).
T1 construct: recombinant His-tagged FOXC2 (WT), purified from HEK293T cells
T1 sequence (Q99958 1-501): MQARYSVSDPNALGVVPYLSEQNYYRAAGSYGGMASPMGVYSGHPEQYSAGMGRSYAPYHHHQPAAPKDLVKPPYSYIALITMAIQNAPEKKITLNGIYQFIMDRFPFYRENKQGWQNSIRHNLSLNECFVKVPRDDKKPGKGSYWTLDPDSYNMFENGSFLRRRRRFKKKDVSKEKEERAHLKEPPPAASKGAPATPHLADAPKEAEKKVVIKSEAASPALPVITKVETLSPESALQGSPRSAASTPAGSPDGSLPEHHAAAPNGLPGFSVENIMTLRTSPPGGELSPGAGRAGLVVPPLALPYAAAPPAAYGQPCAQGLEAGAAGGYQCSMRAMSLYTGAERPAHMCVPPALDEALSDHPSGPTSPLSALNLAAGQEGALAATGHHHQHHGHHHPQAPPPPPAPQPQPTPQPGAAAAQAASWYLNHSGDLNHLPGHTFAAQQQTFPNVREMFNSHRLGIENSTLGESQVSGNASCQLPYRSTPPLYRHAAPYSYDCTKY
Briefly: BLI (Octet RED […], Ni-NTA sensors); supported by AE-bead competitive pull-down from PMCs.

In test [2] the target is T2, Forkhead box protein C2 (FOXC2) (Homo sapiens, UniProt Q99958, S125A).
T2 construct: recombinant His-tagged FOXC2 mutant 1, purified from HEK293T cells
T2 sequence (Q99958 1-501 S125A): T1 sequence (Q99958 1-501) with S125A
In words: BLI (Octet RED […], Ni-NTA sensors). On the technique in general: Biolayer interferometry detects binding as a change in optical thickness at a sensor tip.

Test [3] addresses T3, Forkhead box protein C2 (FOXC2) (Homo sapiens, UniProt Q99958, N127A).
T3 construct: recombinant His-tagged FOXC2 mutant 2, purified from HEK293T cells
T3 sequence (Q99958 1-501 N127A): T1 sequence (Q99958 1-501) with N127A
Briefly: BLI (Octet RED […], Ni-NTA sensors); KD at fit limit.

Substitutions are numbered along the chain they refer to.

Usually Kd stands for the equilibrium constant for the complex coming apart. Higher therefore signals a looser complex. As to `O=C1c2cccc(O)c2C(=O)c2c(O)cc(CO)cc21` [AE, 1,8‐dihydroxy‐3‐hydroxymethyl‐anthraquinone], the Kd was 8.25 µM in test [1], 13.3 µM in test [2] and under 1 pM in test [3].
